Experimental data: ChEMBL document CHEMBL1201862, “PubChem BioAssay data set” (2004)
Activity calls are given as the source filed them.

Assays:
[1] = Luminescence Cell-Based Dose Retest to Confirm Inhibitors of Cancer Stem Cells. [Related pubchem assays (depositor defined):AID2717, AID2721]; assay type: functional; details: Homo sapiens
INS1 = test: beta cell apoptosis inhibitors, cytokine rescue, dose response, luminescence, retest (AID 449756); assay type: functional, cell-based; details: Rattus norvegicus;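 further: cell death triggered by IL-1 beta plus TNF-alpha plus IFN-gamma mixture; protective hits raise ATP signal compared with cytokine alone wells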
Melanocortin receptor 4 = Melanocortin receptor 4 (Homo sapiens, UniProt P32245); test: MC4R antagonist potency on cAMP, dose response, cell-based, TR-FRET, biased antagonists (AID 602298); assay type: functional;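 further: antagonist potency against agonist-stimulated cAMP production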
Melanocortin receptor 4, sequence (P32245 whole entry): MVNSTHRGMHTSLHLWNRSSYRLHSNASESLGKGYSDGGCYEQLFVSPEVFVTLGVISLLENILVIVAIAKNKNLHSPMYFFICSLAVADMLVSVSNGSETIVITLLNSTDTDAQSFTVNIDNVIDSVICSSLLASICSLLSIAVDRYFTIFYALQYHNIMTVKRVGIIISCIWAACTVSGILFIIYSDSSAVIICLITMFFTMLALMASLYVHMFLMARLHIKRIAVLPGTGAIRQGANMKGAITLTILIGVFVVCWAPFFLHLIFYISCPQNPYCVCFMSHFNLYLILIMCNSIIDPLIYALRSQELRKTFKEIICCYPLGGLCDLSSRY

[2] = nonselective inhibitors of cellular cAMP signaling, dose response, counter-screen for MC4R biased antagonist project, cell-based, TR-FRET cAMP detection (AID 602305); assay type: functional;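 further: U2OS cells stimulated with forskolin near its EC80 as the cAMP inducer; potency is for inhibition of forskolin-stimulated cAMP signaling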
Paired box protein Pax-8 = Paired box protein Pax-8 (Homo sapiens, UniProt Q06710); test: inhibitors of PAX8-driven TPO luciferase reporter, dose response, RMG-I cells, cherry-pick (AID 687027); assay type: functional, cell-based;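 further: luciferase reporter driven by Pax8 target thyroperoxidase promoter measured by SteadyGlo luminescence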
Paired box protein Pax-8, sequence (Q06710 whole entry): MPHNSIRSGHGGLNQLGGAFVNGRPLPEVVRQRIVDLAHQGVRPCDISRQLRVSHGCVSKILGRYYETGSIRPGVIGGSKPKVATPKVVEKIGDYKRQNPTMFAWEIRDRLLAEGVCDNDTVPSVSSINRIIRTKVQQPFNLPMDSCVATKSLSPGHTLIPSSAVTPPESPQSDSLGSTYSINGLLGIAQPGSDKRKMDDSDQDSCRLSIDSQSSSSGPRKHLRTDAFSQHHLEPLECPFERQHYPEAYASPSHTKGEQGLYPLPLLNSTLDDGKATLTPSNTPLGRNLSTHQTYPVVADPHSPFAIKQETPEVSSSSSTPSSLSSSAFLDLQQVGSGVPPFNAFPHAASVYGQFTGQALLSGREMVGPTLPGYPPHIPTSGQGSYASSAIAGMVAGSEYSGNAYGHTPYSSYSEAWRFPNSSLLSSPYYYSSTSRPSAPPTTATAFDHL

[3] = non-specific cell cytotoxicity, dose response, cytotoxicity control for PAX8 inhibitor project, plate reader, dry powder samples (AID 743021); assay type: functional, cell-based
[4] = inhibitors of intracellular T. cruzi replication, confirmation, NIH3T3 host cells, beta-gal luminescence (AID 2044); assay type: functional, cell-based;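 further: intracellular parasites grown in NIH/3T3 mouse fibroblasts as host cells; luminescent beta-galactosidase reporter signal from transgenic T. cruzi replicating inside host cells; inhibitors lower the luminescence signal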
[5] = cytotoxicity toward NIH3T3 fibroblasts, dose response, counter-screen, cell-based, ATP luminescence, mouse fibroblasts (AID 2010); assay type: functional;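 further: cells exposed to compound for about 90 hours before reading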
HEK293 = test: inhibitors of LMP1-driven NF-kB reporter, dose response, cell-based, HEK293, luciferase, cherry-pick (AID 588343); assay type: functional; details: Homo sapiens
[6] = biological target: T1, Latent membrane protein 1 (Human herpesvirus 4 (strain B95-8), UniProt P03230); test: TES1-eGFP NF-kB reporter inhibition versus Tet-On dsRED, dose response, selectivity assay for LMP1 NF-kB inhibitor project, imaging, HEK293T, dual-color eGFP/dsRED, cherry-picks (AID 588398); assay type: functional, cell-based
T1 sequence (P03230 whole entry): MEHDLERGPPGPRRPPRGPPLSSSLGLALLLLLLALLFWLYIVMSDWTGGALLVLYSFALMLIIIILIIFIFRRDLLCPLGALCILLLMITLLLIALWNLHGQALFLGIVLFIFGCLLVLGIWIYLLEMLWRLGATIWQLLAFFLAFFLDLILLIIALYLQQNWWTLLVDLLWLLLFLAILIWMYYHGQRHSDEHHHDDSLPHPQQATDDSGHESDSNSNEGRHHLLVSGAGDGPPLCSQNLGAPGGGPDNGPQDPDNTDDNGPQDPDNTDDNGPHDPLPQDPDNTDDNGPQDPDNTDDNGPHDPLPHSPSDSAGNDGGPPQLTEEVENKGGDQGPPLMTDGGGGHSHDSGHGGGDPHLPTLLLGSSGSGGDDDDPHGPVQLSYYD

[7] = NIH-3T3 fibroblast cytotoxicity, dose response, cytotoxicity control, cell-based, fluorescence, Alamar Blue, secondary assay (AID 2327); assay type: functional;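 further: NIH-3T3 mouse fibroblasts cultured with fluconazole at 8 µg/mL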
[8] = C. albicans growth with fluconazole, confirmation, fluorescence, retest (AID 2467); assay type: functional, cell-based
[9] = biological target: T2, Serine/threonine-protein phosphatase (Candida dubliniensis (strain CD36 / CBS 7987 / NCPF 3949 / NRRLY-17841) (Yeast), UniProt B9W6M3); test: calcineurin pathway inhibitors in yeast reporter, dose response, S. cerevisiae, CDRE-lacZ, luminescence, secondary (AID 2388); assay type: functional, cell-based;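 further: yeast reporter cells carrying a calcineurin-responsive lacZ construct stimulated with calcium chloride; luminescent beta-galactosidase reporter signal in whole cells rather than isolated phosphatase activity; potency for inhibition where a drop in reporter signal means calcineurin blockade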
T2 sequence (B9W6M3 whole entry): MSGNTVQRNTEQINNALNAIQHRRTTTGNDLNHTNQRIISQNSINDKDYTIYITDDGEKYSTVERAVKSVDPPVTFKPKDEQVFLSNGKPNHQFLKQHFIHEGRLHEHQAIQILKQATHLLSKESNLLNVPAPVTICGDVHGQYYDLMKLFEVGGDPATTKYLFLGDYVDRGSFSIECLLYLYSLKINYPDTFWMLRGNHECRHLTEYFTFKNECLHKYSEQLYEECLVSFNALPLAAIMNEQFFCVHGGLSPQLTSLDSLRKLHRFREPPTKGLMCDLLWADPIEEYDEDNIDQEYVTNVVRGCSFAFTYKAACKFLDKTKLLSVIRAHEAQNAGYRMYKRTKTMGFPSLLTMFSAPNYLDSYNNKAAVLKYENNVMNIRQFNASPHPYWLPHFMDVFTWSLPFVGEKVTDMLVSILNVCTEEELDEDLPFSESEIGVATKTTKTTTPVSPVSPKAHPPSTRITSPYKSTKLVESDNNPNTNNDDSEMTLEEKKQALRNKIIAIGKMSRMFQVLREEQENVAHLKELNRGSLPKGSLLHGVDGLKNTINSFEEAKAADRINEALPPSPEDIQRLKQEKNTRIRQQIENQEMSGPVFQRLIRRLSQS

Beta-galactosidase = Beta-galactosidase (Escherichia coli, UniProt Q8VNN2); test: beta-galactosidase enzyme inhibitors and activators, dose response, artefact control for CCR6 antagonist project, biochemical, E. coli enzyme, set 3 (AID 504712); assay type: functional
Beta-galactosidase, sequence (Q8VNN2 whole entry): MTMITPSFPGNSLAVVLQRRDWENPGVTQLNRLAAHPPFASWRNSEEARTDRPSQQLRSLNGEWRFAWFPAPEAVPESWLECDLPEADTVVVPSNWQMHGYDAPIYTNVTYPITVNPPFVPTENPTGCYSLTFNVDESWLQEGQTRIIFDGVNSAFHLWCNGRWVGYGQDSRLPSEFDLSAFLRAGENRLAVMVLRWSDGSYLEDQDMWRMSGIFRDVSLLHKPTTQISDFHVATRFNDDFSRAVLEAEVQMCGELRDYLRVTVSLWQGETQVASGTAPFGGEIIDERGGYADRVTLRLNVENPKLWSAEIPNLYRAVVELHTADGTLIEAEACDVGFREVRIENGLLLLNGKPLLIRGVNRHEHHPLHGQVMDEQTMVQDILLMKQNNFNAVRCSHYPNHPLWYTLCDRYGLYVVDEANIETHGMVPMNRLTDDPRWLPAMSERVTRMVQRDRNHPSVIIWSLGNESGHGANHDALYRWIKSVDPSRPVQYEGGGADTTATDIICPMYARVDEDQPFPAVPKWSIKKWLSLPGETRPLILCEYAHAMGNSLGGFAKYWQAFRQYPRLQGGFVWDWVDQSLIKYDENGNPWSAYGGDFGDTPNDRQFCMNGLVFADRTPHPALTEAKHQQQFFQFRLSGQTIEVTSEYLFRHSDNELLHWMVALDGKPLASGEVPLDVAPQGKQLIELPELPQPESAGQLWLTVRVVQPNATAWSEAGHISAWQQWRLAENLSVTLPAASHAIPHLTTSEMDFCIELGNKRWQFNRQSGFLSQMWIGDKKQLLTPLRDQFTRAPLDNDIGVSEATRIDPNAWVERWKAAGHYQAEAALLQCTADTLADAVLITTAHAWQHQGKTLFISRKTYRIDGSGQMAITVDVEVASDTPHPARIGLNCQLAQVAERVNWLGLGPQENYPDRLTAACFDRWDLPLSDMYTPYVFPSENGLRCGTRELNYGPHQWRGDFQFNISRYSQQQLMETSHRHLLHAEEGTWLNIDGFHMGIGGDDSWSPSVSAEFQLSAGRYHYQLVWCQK

[10] = biological target: ATP-dependent molecular chaperone HSP82 (Candida albicans (strain WO-1) (Yeast), UniProt C4YTQ8); test: loss of DOC-induced GRE-beta-galactosidase reporter signal, dose response, Hsp90 inhibitor project, S. cerevisiae, luminescence (AID 2400); assay type: functional, cell-based;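 further: beta-galactosidase luminescence from glucocorticoid response element reporter as proxy for Hsp90 function; inhibitor potency where signal loss means Hsp90 inhibition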
ATP-dependent molecular chaperone HSP82, sequence (C4YTQ8 whole entry): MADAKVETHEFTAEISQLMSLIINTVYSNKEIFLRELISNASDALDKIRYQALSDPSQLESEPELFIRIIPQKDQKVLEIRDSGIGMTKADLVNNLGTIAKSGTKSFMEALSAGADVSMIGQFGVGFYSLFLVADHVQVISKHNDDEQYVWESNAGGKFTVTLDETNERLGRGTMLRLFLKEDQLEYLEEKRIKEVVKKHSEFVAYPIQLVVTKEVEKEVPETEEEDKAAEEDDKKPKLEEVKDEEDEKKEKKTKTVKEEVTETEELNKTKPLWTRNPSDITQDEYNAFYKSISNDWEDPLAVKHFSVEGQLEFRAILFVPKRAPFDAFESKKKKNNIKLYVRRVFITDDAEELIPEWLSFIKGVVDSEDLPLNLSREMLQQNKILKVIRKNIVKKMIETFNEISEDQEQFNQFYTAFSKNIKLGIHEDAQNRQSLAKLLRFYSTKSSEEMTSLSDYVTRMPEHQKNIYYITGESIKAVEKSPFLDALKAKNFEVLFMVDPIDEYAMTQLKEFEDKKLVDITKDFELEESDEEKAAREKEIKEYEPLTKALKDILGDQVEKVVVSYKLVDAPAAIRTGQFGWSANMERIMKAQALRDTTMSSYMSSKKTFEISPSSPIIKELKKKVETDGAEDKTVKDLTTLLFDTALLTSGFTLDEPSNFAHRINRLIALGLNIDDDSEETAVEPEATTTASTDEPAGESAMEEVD

BJ [11] = test: cytotoxicity toward BJ-TERT fibroblasts, dose response, cell-based, RAS-independent, luminescence (AID 1933); assay type: functional; details: Homo sapiens
cells [12] = assay type: functional, cell-based
BJ [13] = test: cells; assay type: functional, cell-based; details: Homo sapiens
cells [14] = assay type: functional, cell-based; remark: listed apart in the source
[15] = cytotoxicity toward DRD oncogenic fibroblasts, dose response, cell-based, non-viral oncogenic, luminescence (AID 1934); assay type: functional; details: Homo sapiens
[16] = biological target: Adenosylmethionine-8-amino-7-oxononanoate aminotransferase (Mycobacterium tuberculosis, UniProt P9WQ81); test: Mycobacterium tuberculosis BioA enzyme inhibitor Measured in Biochemical System Using Plate Reader - 2163-02_Inhibitor_Dose_CherryPick_Activity.; assay type: functional, Mycobacterium tuberculosis UT205
Adenosylmethionine-8-amino-7-oxononanoate aminotransferase, sequence (P9WQ81 whole entry): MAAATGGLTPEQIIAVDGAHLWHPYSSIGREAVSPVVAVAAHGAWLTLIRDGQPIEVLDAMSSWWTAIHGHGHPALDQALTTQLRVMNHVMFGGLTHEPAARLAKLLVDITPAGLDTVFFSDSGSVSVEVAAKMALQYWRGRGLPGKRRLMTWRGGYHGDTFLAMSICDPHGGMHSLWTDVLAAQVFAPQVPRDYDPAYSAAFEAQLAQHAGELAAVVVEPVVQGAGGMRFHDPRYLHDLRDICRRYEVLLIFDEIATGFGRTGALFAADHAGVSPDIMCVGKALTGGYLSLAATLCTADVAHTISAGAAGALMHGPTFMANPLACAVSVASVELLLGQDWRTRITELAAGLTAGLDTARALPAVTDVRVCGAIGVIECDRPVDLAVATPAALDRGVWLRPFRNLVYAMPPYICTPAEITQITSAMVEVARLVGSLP

C=C1CCc2c([nH]c3ccc(OCC(C)C)cc23)C1=O
AC50 [1]: 2.08 µM (active)
AC50 (INS1): 3.69 µM (active)
IC50 (Melanocortin receptor 4): 6.05 µM (active)
IC50 [2]: > 64.6 µM (inactive)
AC50 (Paired box protein Pax-8): 6.14 µM (active)
AC50 [3]: 35.6 µM (active)

CCOc1ccc2nc(NC(=O)C3CCCN(S(=O)(=O)c4cccc5nonc45)C3)sc2c1 (stereo not drawn)
EC50 [4]: 2.11 µM (active)
EC50 [5]: > 60 µM (not active)
IC50 (Melanocortin receptor 4): > 64.6 µM (inactive)
IC50 [2]: > 64.6 µM (inactive)

O=C1c2cccc([N+](=O)[O-])c2C(=O)N1c1ccccc1
IC50 (Melanocortin receptor 4): > 64.6 µM (inactive)
IC50 [2]: > 64.6 µM (inactive)

O=C1CSC(=S)N1Cc1ccccc1
AC50 (HEK293): 2.11 µM (active)
AC50 [6]: 119 µM (active)

CC(=O)NC(c1ccc(C)cc1)c1cc([N+](=O)[O-])c2cccnc2c1O (stereo not drawn)
EC50 [7]: 47.2 µM (active)
EC50 [8]: 0.334 µM (active)
EC50 [4]: 1.16 µM (active)
EC50 [9]: > 180 µM (inactive)
EC50 [5]: < 6 µM (inconclusive)
IC50 (Beta-galactosidase): > 66.6 µM (inactive)
EC50 [10]: 40.3 µM (active)

CCN(CC)c1ccc(/C=N/NC(=O)c2cnccn2)c(O)c1
EC50 (BJ [11]): 5.61 µM (active)
EC50 (cells [12]): 8.38 µM (active)
EC50 (BJ [13]): 5.54 µM (active)
EC50 (cells [14]): 40 µM (active)
EC50 [15]: 2.17 µM (active)
AC50 (HEK293): 5.61 µM (active)
AC50 [6]: 13.2 µM (active)
AC50 (INS1): 0.55 µM (active)

CCOC(=O)CC(NC(=O)C(Cc1ccc(N(CCCl)CCCl)cc1)NC(C)=O)C(=O)OCC (stereo not drawn)
AC50 (HEK293): 1.65 µM (active)
AC50 [6]: 16.2 µM (active)

O=C(Nc1ccc2c(c1)[C@H]1C[C@@H](CC(=O)N3CCc4ccccc4C3)O[C@@H](CO)[C@H]1O2)c1cccnc1
AC50 [16]: 10.5 µM (active)

COCCNC(=O)C[C@H]1CC[C@@H]2[C@@H](COc3ccc(NC(=O)Nc4cccc(F)c4)cc3C(=O)N2C)O1
AC50 [16]: 5.19 µM (active)
